Legend:
Format in all cases: biochemical
[1] = molecular target: T1, cloned human δ receptor (HDELTA) (Homo sapiens, UniProt P41143); test: GTP[γ]35S binding functional assay, membranes from HEK-293S cells expressing cloned human opioid receptors; settings: HEK-293S membranes, read-out: HDELTA % E Max
T1 construct: expressed in transfected cells; host or cells: human 293S (HEK-293S) cells, geneticin-selected
Experimental: A. Human 293S cells expressing cloned human μ, δ, and κ receptors and neomycin resistance were grown in suspension at 37° C. and 5% CO2 in shaker flasks containing calcium-free DMEM10% FBS, 5% BCS, 0.1% Pluronic F-68, and 600 μg/ml geneticin.
Cells were pelleted and resuspended in lysis buffer (50 mM Tris, pH 7.0, 2.5 mM EDTA, with PMSF added just prior to use to 0.1 mM from a 0.1 M stock in ethanol), incubated on ice for 15 min, then homogenized with a polytron for 30 sec. The suspension was spun at 1,000 g (max) for 10 min at 4° C. The supernatant was saved on ice and the pellets resuspended and spun as before. The supernatants from both spins were combined and spun at 46,000 g(max) for 30 min. The pellets were resuspended in cold Tris buffer (50 mM Tris/Cl, pH 7.0) and spun again. The final pellets were resuspended in membrane buffer (50 mM Tris, 0.32 M sucrose, pH 7.0). Aliquots (1 ml) in polypropylene tubes were frozen in dry ice/ethanol and stored at −70° C. until use. The protein concentrations were determined by a modified Lowry assay with SDS.
(§1) The agonist activity of the compounds is measured by determining the degree to which the compounds receptor complex activates the binding of GTP to G-proteins to which the receptors are coupled. In the GTP binding assay, GTP[γ]^35S is combined with test compounds and membranes from HEK-293S cells expressing the cloned human opioid receptors or from homogenised rat and mouse brain. Agonists stimulate GTP[γ]^35S binding in these membranes. The EC50 and Emax values of compounds are determined from dose-response curves. Right shifts of the dose response curve by the delta antagonist naltrindole are performed to verify that agonist activity is mediated through delta receptors.

[2] = molecular target: T2, delta receptors, rat brain membranes (Rattus norvegicus, UniProt P33533); test: GTP[γ]35S binding functional assay, homogenised rat brain; settings: rat brain homogenate, read-out: RAT BRAIN % E Max
T2 construct: from tissue; host or cells: rat brain homogenate
Experimental: (§2) B. Mouse and rat brains were weighed and rinsed in ice-cold PBS (containing 2.5 mM EDTA, pH 7.4). The brains were homogenized with a polytron for 15 sec (mouse) or 30 sec (rat) in ice-cold lysis buffer (50 mM Tris, pH 7.0, 2.5 mM EDTA, with phenylmethylsulfonyl fluoride added just prior use to […] from a 0.5M stock in DMSO:ethanol).
as §1

[3] = molecular target: T3, delta receptors, mouse brain membranes (Mus musculus, UniProt P32300); test: GTP[γ]35S binding functional assay, homogenised mouse brain; settings: mouse brain homogenate, read-out: MOUSE BRAIN % E Max
T3 construct: from tissue; host or cells: mouse brain homogenate
Experimental: as §2, §1

T1 sequence (P41143 whole entry): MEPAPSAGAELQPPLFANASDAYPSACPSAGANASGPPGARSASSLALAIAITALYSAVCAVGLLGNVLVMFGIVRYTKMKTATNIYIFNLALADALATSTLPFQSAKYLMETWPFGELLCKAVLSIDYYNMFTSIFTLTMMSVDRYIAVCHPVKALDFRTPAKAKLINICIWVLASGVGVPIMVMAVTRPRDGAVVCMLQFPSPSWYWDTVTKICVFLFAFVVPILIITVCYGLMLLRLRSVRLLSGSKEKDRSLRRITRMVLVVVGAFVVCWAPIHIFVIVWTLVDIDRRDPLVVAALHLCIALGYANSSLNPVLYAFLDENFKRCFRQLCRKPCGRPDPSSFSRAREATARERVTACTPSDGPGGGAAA
T2 sequence (P33533 whole entry): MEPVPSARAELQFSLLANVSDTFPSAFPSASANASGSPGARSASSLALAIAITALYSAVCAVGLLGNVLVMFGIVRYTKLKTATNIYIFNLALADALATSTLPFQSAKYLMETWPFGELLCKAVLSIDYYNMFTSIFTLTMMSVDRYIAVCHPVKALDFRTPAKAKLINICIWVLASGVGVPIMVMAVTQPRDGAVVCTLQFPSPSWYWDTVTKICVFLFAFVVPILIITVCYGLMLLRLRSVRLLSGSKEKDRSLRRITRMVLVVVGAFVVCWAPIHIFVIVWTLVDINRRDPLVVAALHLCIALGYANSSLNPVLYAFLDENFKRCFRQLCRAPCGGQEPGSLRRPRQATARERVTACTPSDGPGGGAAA
T3 sequence (P32300 whole entry): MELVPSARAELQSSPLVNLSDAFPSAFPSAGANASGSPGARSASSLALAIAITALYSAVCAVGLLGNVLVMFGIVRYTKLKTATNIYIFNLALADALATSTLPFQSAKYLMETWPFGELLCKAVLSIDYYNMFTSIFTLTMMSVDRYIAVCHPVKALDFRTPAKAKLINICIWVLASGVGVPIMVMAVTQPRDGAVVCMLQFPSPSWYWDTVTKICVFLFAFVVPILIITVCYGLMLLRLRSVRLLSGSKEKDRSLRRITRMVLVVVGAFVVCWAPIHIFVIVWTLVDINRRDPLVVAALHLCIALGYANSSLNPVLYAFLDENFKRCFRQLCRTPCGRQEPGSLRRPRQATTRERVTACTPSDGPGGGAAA

Structure (SMILES) | Emax [1] | Emax [2] | Emax [3]
CCN(CC)C(=O)c1ccc(C(=C2CCN(Cc3ccccc3)CC2)c2cccc(O)c2)cc1 [Example 2, N,N-diethyl-4-(3-hydroxylphenyl-N-benzyl-piperidin-4-ylidene-methyl)-benzamide] | 104% | 112% | 104%
CCN(CC)C(=O)c1ccc(C(=C2CCN(Cc3cccs3)CC2)c2cccc(O)c2)cc1 [Example 3, N,N-diethyl-4-{(3-hydroxyphenyl)[1-(2-thienylmethyl)-4-piperidinylidene]methyl}benzamide] | 98.2% | 168% | 186%
CCN(CC)C(=O)c1ccc(C(=C2CCN(Cc3ccco3)CC2)c2cccc(O)c2)cc1 [Example 5, N,N-diethyl-4-[[1-(2-furylmethyl)-4-piperidinylidene](3-hydroxyphenyl)methyl]benzamide] | 94.8% | 132% | 134%
CCN(CC)C(=O)c1ccc(C(=C2CCN(Cc3ccccn3)CC2)c2cccc(O)c2)cc1 [Example 7, N,N-diethyl-4-{(3-hydroxyphenyl)[1-(2-pyridinylmethyl)-4-piperidinylidene]methyl}benzamide] | 103% | 135% | 138%
CCN(CC)C(=O)c1ccc(C(=C2CCN(Cc3ccncc3)CC2)c2cccc(O)c2)cc1 [Example 8, N,N-diethyl-4-{(3-hydroxyphenyl)[1-(4-pyridinylmethyl)-4-piperidinylidene]methyl}benzamide] | 112% | 81.4% | 78.2%
CCN(CC)C(=O)c1ccc(C(=C2CCN(Cc3ncc[nH]3)CC2)c2cccc(O)c2)cc1 [Example 9, N,N-diethyl-4-{(3-hydroxyphenyl)[1-(1H-imidazol-2-ylmethyl)-4-piperidinylidene]methyl}benzamide] | 106% | 151% | 136%
CCN(CC)C(=O)c1ccc(C(=C2CCN(Cc3c[nH]cn3)CC2)c2cccc(O)c2)cc1 [Example 10, N,N-diethyl-4-{(3-hydroxyphenyl)[1-(1H-imidazol-4-ylmethyl)-4-piperidinylidene]methyl}benzamide] | 107% | 102% | 104%
CCN(CC)C(=O)c1ccc(C(=C2CCN(Cc3nccs3)CC2)c2cccc(O)c2)cc1 [Example 11, N,N-diethyl-4-{(3-hydroxyphenyl)[1-(1,3-thiazol-2-ylmethyl)-4-piperidinylidene]methyl}benzamide] | 115% | 120% | 118%

— US6756387B2, “Hydroxyphenyl-piperidin-4-ylidene-methyl-benzamide derivatives for the treatment of pain” (AstraZeneca AB, priority 2000, dated 2004)
